In US11697648B2, “Fused pyrimidine pyridinone compounds as JAK inhibitors” (THERAVANCE BIOPHARMA R&D IP, LLC, priority 2019, dated 2023):

Each compound was assayed against JAK2 (Homo sapiens (Human), UniProt O60674) (assay: Biochemical JAK2 kinase assay (LanthaScreen)). Details: not given.
Description: (§1) Assay 1: Biochemical JAK and Tyk2 Kinase Assays
(§2) A panel of four LanthaScreen JAK biochemical assays (JAK1, 2, 3 and Tyk2) were carried in a common kinase reaction buffer (50 mM HEPES, pH 7.5, 0.01% Brij-35, 10 mM MgCl2, and 1 mM EGTA). Recombinant GST-tagged JAK enzymes and a GFP-tagged STAT1 peptide substrate were obtained from Life Technologies.
(§3) Serially or discretely diluted compounds were pre-incubated with each of the four JAK enzymes and the substrate in white 384-well microplates (Corning) at ambient temperature for 1 h. ATP was subsequently added to initiate the kinase reactions in 10 μL total volume, with 1% DMSO. […] Kinase reactions were allowed to proceed for 1 hour at ambient temperature before a 10 μL preparation of EDTA (10 mM final concentration) and Tb-anti-pSTAT1 (pTyr701) antibody (Life Technologies, 2 nM final concentration) in TR-FRET dilution buffer (Life Technologies) was added. The plates were allowed to incubate at ambient temperature for 1 h before being read on the EnVision reader (Perkin Elmer). Emission ratio signals (520 nm/495 nm) were recorded and utilized to calculate the percent inhibition values based on DMSO and background controls.
(§4) For dose-response analysis, percent inhibition data were plotted vs. compound concentrations, and IC50 values were determined from a 4-parameter robust fit model with the Prism software (GraphPad Software). Results were expressed as pIC50 (negative logarithm of IC50) and subsequently converted to pKi (negative logarithm of dissociation constant, Ki) using the Cheng-Prusoff equation.

Sequence of JAK2 (O60674 whole entry): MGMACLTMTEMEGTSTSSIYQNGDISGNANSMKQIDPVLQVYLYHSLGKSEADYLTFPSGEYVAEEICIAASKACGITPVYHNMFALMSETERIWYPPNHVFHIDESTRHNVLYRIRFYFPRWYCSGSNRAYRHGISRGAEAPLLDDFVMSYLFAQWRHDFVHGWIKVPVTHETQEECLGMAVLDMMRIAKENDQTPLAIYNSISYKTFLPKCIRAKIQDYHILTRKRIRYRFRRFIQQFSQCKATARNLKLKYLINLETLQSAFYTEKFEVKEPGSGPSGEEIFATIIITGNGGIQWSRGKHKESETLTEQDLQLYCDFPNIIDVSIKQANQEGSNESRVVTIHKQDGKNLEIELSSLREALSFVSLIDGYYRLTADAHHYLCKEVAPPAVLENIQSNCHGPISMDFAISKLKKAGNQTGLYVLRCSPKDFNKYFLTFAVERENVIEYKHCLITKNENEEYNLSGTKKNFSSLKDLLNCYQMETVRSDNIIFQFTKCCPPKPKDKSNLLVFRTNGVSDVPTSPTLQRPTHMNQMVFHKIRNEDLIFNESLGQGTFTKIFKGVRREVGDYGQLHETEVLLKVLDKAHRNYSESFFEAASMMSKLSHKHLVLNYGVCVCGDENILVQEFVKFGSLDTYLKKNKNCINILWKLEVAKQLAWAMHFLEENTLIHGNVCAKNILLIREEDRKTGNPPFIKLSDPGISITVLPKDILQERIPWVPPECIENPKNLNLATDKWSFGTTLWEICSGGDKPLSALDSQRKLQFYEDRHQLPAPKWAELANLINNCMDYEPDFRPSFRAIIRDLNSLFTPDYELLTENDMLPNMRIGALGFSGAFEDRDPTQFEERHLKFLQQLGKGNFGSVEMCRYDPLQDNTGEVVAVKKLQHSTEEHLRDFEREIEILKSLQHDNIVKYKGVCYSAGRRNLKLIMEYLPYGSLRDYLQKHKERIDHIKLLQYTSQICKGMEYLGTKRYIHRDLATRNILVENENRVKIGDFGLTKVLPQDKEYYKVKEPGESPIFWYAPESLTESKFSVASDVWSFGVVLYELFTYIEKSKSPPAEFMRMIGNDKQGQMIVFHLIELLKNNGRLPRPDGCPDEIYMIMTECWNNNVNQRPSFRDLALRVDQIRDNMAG

Structure (SMILES) | JAK 2 (pKi)
C=CC(=O)N1CCN(CCn2c(=O)ccc3cnc(Nc4ccc(C5CCN(C)CC5)cc4)nc32)CC1 [Example 87] | E (E represents a pKi value of 7 or below (Ki of 100 nM or above))
C=CC(=O)N1CC(CCn2c(=O)ccc3cnc(Nc4ccc(N5CCN(C(=O)NC)CC5)cc4)nc32)C1 [Example 93] | E (E represents a pKi value of 7 or below (Ki of 100 nM or above))
C=CC(=O)N1CC(CCn2c(=O)ccc3cnc(Nc4ccc(N5CCN(S(=O)(=O)N(C)C)CC5)cc4)nc32)C1 [Example 97] | E (E represents a pKi value of 7 or below (Ki of 100 nM or above))
C=CC(=O)N1CC(CCn2c(=O)ccc3cnc(Nc4ccc(N5CCN(C(=O)CC(C)C)CC5)cc4)nc32)C1 [Example 103] | E (E represents a pKi value of 7 or below (Ki of 100 nM or above))
C=CC(=O)N1CC(CCn2c(=O)ccc3cnc(Nc4ccc(N5CCN(C(=O)C(C)(C)C)CC5)cc4)nc32)C1 [Example 104] | E (E represents a pKi value of 7 or below (Ki of 100 nM or above))
C=CC(=O)N1CC(CCn2c(=O)ccc3cnc(Nc4cccc(CN5CCN(C(=O)OC)CC5)c4)nc32)C1 [Example 111] | E (E represents a pKi value of 7 or below (Ki of 100 nM or above))
C=CC(=O)N1CC(CCn2c(=O)ccc3cnc(Nc4ccc(N5CCN(CCN6CCCCC6)CC5)cc4)nc32)C1 [Example 113] | E (E represents a pKi value of 7 or below (Ki of 100 nM or above))

These compounds were tested against Tyk2 (Homo sapiens (Human), UniProt P29597) (assay: Biochemical Tyk2 kinase assay (LanthaScreen)). Details: not given.
Description: as §1, §2, §3, §4

Sequence of Tyk2 (P29597 whole entry): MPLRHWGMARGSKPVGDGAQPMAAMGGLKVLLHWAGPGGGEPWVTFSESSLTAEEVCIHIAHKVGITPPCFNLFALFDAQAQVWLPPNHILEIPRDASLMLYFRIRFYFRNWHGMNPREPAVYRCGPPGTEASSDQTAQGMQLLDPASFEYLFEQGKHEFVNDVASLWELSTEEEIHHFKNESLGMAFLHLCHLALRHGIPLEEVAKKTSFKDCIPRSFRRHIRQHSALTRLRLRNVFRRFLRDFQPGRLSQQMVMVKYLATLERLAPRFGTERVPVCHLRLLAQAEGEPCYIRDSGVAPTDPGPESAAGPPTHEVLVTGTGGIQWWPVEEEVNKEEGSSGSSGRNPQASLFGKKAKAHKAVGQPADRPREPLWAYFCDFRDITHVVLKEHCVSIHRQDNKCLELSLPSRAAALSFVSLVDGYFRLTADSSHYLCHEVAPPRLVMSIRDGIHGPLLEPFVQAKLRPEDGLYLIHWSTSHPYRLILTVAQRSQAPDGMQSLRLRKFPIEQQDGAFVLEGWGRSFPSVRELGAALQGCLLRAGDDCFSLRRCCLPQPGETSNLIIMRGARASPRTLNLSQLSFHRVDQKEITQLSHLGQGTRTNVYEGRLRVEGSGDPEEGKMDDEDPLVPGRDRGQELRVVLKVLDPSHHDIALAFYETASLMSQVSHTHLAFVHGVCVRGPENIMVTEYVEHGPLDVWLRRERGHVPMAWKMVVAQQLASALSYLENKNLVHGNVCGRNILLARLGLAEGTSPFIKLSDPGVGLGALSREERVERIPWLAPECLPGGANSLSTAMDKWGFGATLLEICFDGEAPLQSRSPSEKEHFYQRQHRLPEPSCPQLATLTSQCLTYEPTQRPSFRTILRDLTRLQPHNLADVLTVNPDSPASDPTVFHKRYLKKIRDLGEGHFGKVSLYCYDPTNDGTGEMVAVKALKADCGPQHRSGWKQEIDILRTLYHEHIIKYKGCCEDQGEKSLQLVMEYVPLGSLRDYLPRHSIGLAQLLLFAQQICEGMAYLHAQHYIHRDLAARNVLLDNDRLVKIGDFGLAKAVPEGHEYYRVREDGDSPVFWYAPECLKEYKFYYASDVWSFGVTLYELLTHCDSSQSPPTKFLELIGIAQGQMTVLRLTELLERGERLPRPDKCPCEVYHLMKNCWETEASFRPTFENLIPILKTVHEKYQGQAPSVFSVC

Structure (SMILES) | Tyk 2 (pKi)
C=CC(=O)N1CCN(CCn2c(=O)ccc3cnc(Nc4ccc(C5CCN(C)CC5)cc4)nc32)CC1 [Example 87] | E (E represents a pKi value of 7 or below (Ki of 100 nM or above))
C=CC(=O)N1CC(CCn2c(=O)ccc3cnc(Nc4ccc(N5CCN(C(=O)NC)CC5)cc4)nc32)C1 [Example 93] | E (E represents a pKi value of 7 or below (Ki of 100 nM or above))
C=CC(=O)N1CC(CCn2c(=O)ccc3cnc(Nc4ccc(N5CCN(S(=O)(=O)N(C)C)CC5)cc4)nc32)C1 [Example 97] | E (E represents a pKi value of 7 or below (Ki of 100 nM or above))
C=CC(=O)N1CC(CCn2c(=O)ccc3cnc(Nc4ccc(N5CCN(C(=O)CC(C)C)CC5)cc4)nc32)C1 [Example 103] | E (E represents a pKi value of 7 or below (Ki of 100 nM or above))
C=CC(=O)N1CC(CCn2c(=O)ccc3cnc(Nc4ccc(N5CCN(C(=O)C(C)(C)C)CC5)cc4)nc32)C1 [Example 104] | E (E represents a pKi value of 7 or below (Ki of 100 nM or above))
C=CC(=O)N1CC(CCn2c(=O)ccc3cnc(Nc4cccc(CN5CCN(C(=O)OC)CC5)c4)nc32)C1 [Example 111] | E (E represents a pKi value of 7 or below (Ki of 100 nM or above))
C=CC(=O)N1CC(CCn2c(=O)ccc3cnc(Nc4ccc(N5CCN(CCN6CCCCC6)CC5)cc4)nc32)C1 [Example 113] | E (E represents a pKi value of 7 or below (Ki of 100 nM or above))

Each compound was assayed against JAK3 (Homo sapiens (Human), UniProt P52333) (assay: Biochemical JAK3 kinase assay (LanthaScreen)). Details: not given.
In short: (§5)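 GST-JAK + GFP-STAT1 peptide, HEPES pH 7.5/MgCl2/EGTA/Brij-35 buffer; cpd preincubation 1 h RT; ATP start, 1 h RT; stop with 10 mM EDTA + 2 nM Tb-anti-pSTAT1; TR-FRET 520/495. 4-parameter IC50 → pKi (Cheng-Prusoff).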

Sequence of JAK3 (P52333 whole entry): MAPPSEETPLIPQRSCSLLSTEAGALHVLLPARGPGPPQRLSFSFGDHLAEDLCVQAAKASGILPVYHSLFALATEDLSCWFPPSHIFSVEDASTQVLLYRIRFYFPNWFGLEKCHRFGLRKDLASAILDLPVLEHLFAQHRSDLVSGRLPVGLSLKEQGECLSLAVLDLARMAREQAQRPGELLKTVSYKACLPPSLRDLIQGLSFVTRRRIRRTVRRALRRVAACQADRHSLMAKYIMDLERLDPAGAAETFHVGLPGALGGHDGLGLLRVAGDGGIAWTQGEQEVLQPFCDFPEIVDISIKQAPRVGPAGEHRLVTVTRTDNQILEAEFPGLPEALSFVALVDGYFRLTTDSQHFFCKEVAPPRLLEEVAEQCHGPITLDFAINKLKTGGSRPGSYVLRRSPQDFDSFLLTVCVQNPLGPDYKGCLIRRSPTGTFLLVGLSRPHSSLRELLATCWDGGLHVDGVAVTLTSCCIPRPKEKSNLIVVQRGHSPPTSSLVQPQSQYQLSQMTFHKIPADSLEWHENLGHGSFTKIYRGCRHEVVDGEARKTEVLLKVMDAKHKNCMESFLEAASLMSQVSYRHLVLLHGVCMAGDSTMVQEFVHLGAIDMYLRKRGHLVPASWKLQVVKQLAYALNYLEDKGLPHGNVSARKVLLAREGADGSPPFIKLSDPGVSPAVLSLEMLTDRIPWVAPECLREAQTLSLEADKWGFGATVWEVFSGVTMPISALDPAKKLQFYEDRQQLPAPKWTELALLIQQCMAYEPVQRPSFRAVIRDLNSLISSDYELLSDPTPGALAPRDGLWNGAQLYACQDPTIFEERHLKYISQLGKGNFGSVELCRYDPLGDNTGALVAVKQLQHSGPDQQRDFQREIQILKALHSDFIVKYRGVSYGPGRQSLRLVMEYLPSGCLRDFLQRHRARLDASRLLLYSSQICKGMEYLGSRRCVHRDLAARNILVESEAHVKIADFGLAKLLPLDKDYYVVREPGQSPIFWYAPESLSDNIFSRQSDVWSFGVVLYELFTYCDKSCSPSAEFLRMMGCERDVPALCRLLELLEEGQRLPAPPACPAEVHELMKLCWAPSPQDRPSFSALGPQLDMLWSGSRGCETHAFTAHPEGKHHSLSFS

Structure (SMILES) | JAK 3 (pKi)
C=CC(=O)N1CCN(CCn2c(=O)ccc3cnc(Nc4ccc(C5CCN(C)CC5)cc4)nc32)CC1 [Example 87] | B (B represents pKi value between 9 and 10 (Ki between 1 nM and 0.1 nM))
C=CC(=O)N1CC(CCn2c(=O)ccc3cnc(Nc4ccc(N5CCN(C(=O)NC)CC5)cc4)nc32)C1 [Example 93] | A (A represents a pKi value≥10 (Ki≤0.1 nM))
C=CC(=O)N1CC(CCn2c(=O)ccc3cnc(Nc4ccc(N5CCN(S(=O)(=O)N(C)C)CC5)cc4)nc32)C1 [Example 97] | B (B represents pKi value between 9 and 10 (Ki between 1 nM and 0.1 nM))
C=CC(=O)N1CC(CCn2c(=O)ccc3cnc(Nc4ccc(N5CCN(C(=O)CC(C)C)CC5)cc4)nc32)C1 [Example 103] | A (A represents a pKi value≥10 (Ki≤0.1 nM))
C=CC(=O)N1CC(CCn2c(=O)ccc3cnc(Nc4ccc(N5CCN(C(=O)C(C)(C)C)CC5)cc4)nc32)C1 [Example 104] | A (A represents a pKi value≥10 (Ki≤0.1 nM))
C=CC(=O)N1CC(CCn2c(=O)ccc3cnc(Nc4cccc(CN5CCN(C(=O)OC)CC5)c4)nc32)C1 [Example 111] | B (B represents pKi value between 9 and 10 (Ki between 1 nM and 0.1 nM))
C=CC(=O)N1CC(CCn2c(=O)ccc3cnc(Nc4ccc(N5CCN(CCN6CCCCC6)CC5)cc4)nc32)C1 [Example 113] | B (B represents pKi value between 9 and 10 (Ki between 1 nM and 0.1 nM))

Same assay, conditions: selectivity JAK3 over JAK1, difference of pKi

Structure (SMILES) | JAK3 (pKi)-JAK1 (pKi)
C=CC(=O)N1CCN(CCn2c(=O)ccc3cnc(Nc4ccc(C5CCN(C)CC5)cc4)nc32)CC1 [Example 87] | A (A represents a value of 3 or above)
C=CC(=O)N1CC(CCn2c(=O)ccc3cnc(Nc4ccc(N5CCN(C(=O)NC)CC5)cc4)nc32)C1 [Example 93] | A (A represents a value of 3 or above)
C=CC(=O)N1CC(CCn2c(=O)ccc3cnc(Nc4ccc(N5CCN(S(=O)(=O)N(C)C)CC5)cc4)nc32)C1 [Example 97] | A (A represents a value of 3 or above)
C=CC(=O)N1CC(CCn2c(=O)ccc3cnc(Nc4ccc(N5CCN(C(=O)CC(C)C)CC5)cc4)nc32)C1 [Example 103] | A (A represents a value of 3 or above)
C=CC(=O)N1CC(CCn2c(=O)ccc3cnc(Nc4ccc(N5CCN(C(=O)C(C)(C)C)CC5)cc4)nc32)C1 [Example 104] | A (A represents a value of 3 or above)
C=CC(=O)N1CC(CCn2c(=O)ccc3cnc(Nc4cccc(CN5CCN(C(=O)OC)CC5)c4)nc32)C1 [Example 111] | A (A represents a value of 3 or above)
C=CC(=O)N1CC(CCn2c(=O)ccc3cnc(Nc4ccc(N5CCN(CCN6CCCCC6)CC5)cc4)nc32)C1 [Example 113] | A (A represents a value of 3 or above)

These compounds were tested against JAK1 (Homo sapiens (Human), UniProt P23458) (assay: Biochemical JAK1 kinase assay (LanthaScreen)). Details: not given.
In short: as §5

Sequence of JAK1 (P23458 whole entry): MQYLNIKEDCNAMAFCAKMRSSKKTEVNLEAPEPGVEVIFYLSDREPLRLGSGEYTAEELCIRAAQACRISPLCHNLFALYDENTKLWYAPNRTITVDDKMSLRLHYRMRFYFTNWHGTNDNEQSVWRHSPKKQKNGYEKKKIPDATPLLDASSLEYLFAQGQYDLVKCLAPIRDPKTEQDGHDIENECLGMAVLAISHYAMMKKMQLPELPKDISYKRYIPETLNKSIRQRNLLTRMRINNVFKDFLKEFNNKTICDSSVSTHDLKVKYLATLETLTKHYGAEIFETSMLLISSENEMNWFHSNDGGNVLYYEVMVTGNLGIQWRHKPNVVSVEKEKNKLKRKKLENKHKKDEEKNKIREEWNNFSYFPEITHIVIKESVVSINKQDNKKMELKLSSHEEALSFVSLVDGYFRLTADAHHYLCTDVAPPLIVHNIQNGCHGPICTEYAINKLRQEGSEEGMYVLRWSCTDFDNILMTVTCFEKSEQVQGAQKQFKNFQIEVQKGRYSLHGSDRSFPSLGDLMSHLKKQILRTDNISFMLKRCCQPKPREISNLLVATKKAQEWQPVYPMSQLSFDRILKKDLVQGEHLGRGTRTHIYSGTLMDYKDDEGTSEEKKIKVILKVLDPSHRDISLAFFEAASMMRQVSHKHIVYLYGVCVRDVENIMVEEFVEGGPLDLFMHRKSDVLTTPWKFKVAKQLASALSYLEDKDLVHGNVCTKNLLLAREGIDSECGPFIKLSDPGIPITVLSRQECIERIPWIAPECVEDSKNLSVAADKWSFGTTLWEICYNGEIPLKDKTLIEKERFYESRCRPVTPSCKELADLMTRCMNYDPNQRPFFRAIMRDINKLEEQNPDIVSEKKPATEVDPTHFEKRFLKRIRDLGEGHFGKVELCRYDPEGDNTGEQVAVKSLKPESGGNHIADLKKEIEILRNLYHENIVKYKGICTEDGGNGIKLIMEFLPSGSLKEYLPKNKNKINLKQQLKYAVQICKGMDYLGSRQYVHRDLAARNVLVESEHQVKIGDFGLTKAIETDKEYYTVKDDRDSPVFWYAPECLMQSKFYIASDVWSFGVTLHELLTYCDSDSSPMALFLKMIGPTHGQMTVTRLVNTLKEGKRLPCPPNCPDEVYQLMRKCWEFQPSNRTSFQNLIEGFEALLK

Structure (SMILES) | JAK 1 (pKi)
C=CC(=O)N1CCN(CCn2c(=O)ccc3cnc(Nc4ccc(C5CCN(C)CC5)cc4)nc32)CC1 [Example 87] | E (E represents a pKi value of 7 or below (Ki of 100 nM or above))
C=CC(=O)N1CC(CCn2c(=O)ccc3cnc(Nc4ccc(N5CCN(C(=O)NC)CC5)cc4)nc32)C1 [Example 93] | E (E represents a pKi value of 7 or below (Ki of 100 nM or above))
C=CC(=O)N1CC(CCn2c(=O)ccc3cnc(Nc4ccc(N5CCN(S(=O)(=O)N(C)C)CC5)cc4)nc32)C1 [Example 97] | E (E represents a pKi value of 7 or below (Ki of 100 nM or above))
C=CC(=O)N1CC(CCn2c(=O)ccc3cnc(Nc4ccc(N5CCN(C(=O)CC(C)C)CC5)cc4)nc32)C1 [Example 103] | E (E represents a pKi value of 7 or below (Ki of 100 nM or above))
C=CC(=O)N1CC(CCn2c(=O)ccc3cnc(Nc4ccc(N5CCN(C(=O)C(C)(C)C)CC5)cc4)nc32)C1 [Example 104] | E (E represents a pKi value of 7 or below (Ki of 100 nM or above))
C=CC(=O)N1CC(CCn2c(=O)ccc3cnc(Nc4cccc(CN5CCN(C(=O)OC)CC5)c4)nc32)C1 [Example 111] | E (E represents a pKi value of 7 or below (Ki of 100 nM or above))
C=CC(=O)N1CC(CCn2c(=O)ccc3cnc(Nc4ccc(N5CCN(CCN6CCCCC6)CC5)cc4)nc32)C1 [Example 113] | E (E represents a pKi value of 7 or below (Ki of 100 nM or above))

These compounds were tested on IL-2 stimulated STAT5 phosphorylation in Tall-1 human T cell line (JAK3) (assay: Cellular JAK3 potency assay: inhibition of IL-2 stimulated pSTAT5 in Tall-1 T cells). Details: IL-2 stimulated pSTAT5, Tall-1 T cells.
Format: cell-based
In short: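 Tall-1 cells, 45,000 per well, preincubated 1 hour with compound at 37 °C, then stimulated 30 minutes with IL-2 at 300 ng/ml final. pSTAT5 (Tyr694/699) in lysates quantified by AlphaLISA SureFire Ultra. pIC50 derived from inhibition curves, given as mean with SD.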

Structure (SMILES) | Tall-1 (pIC50)
C=CC(=O)N1CCN(CCn2c(=O)ccc3cnc(Nc4ccc(C5CCN(C)CC5)cc4)nc32)CC1 [Example 87] | A (A represents a pIC50 value≥7.5 (IC50≤32 nM))
C=CC(=O)N1CC(CCn2c(=O)ccc3cnc(Nc4ccc(N5CCN(C(=O)NC)CC5)cc4)nc32)C1 [Example 93] | B (B represents a pC50 value between 6.7 (included) and 7.5 (IC50 between 200 nM and 32 nM))
C=CC(=O)N1CC(CCn2c(=O)ccc3cnc(Nc4ccc(N5CCN(S(=O)(=O)N(C)C)CC5)cc4)nc32)C1 [Example 97] | A (A represents a pIC50 value≥7.5 (IC50≤32 nM))
C=CC(=O)N1CC(CCn2c(=O)ccc3cnc(Nc4ccc(N5CCN(C(=O)CC(C)C)CC5)cc4)nc32)C1 [Example 103] | A (A represents a pIC50 value≥7.5 (IC50≤32 nM))
C=CC(=O)N1CC(CCn2c(=O)ccc3cnc(Nc4ccc(N5CCN(C(=O)C(C)(C)C)CC5)cc4)nc32)C1 [Example 104] | A (A represents a pIC50 value≥7.5 (IC50≤32 nM))
C=CC(=O)N1CC(CCn2c(=O)ccc3cnc(Nc4cccc(CN5CCN(C(=O)OC)CC5)c4)nc32)C1 [Example 111] | B (B represents a pC50 value between 6.7 (included) and 7.5 (IC50 between 200 nM and 32 nM))
C=CC(=O)N1CC(CCn2c(=O)ccc3cnc(Nc4ccc(N5CCN(CCN6CCCCC6)CC5)cc4)nc32)C1 [Example 113] | A (A represents a pIC50 value≥7.5 (IC50≤32 nM))
